Source: ChEMBL document CHEMBL1687838, “The in vitro contribution of autolysins to bacterial killing elicited by amoxicillin increases with inoculum size in Enterococcus faecalis” (2011)
Converted amounts (≈) assume the structure as drawn. The source made the active and inactive calls. The calls are words filed in the database; no cut-off is given here.

What was measured:
Enterococcus faecalis [1] = assay: Bactericidal activity against 5 X 10^8 CFU/ml Enterococcus faecalis JH2-2 harboring deletion at AltA, AltB and AltC gene at 2 ug/ml after 6 hrs by time kill analysis; format: functional
Enterococcus faecalis [2] = assay: Antibacterial activity against Enterococcus faecalis JH2-2 harboring deletion at AltA, AltB and AltC gene assessed as induction of membrane permeabilization at 2 ug/ml after 3 hrs by propidium iodide and Syto9 staining based confocal microscopic analysis; format: functional, organism-based
Enterococcus faecalis [3] = assay: Bactericidal activity against 5 X 10^8 CFU/ml Enterococcus faecalis JH2-2 harboring deletion at AltA, AltB and AltC gene at 2 ug/ml after 3 hrs by time kill analysis; format: functional
Enterococcus faecalis [4] = assay: (§1) Bactericidal activity against 5 X 10^8 CFU/ml Enterococcus faecalis JH2-2 harboring deletion at AltA, AltB and AltC gene infected in rabbit assessed as bacterial load per gram of vegetation at 50 mg/kg, im administered three times a day starting 48 hrs post-infection measured after 24 hrs by time kill analysis (reference value: 8.69+- 1.19 log10 CFU/g); format: functional; details: route intramuscular
Enterococcus faecalis [5] = assay: Bactericidal activity against 5 X 10^6 CFU/ml Enterococcus faecalis JH2-2 at 2 ug/ml after 6 hrs by time kill analysis; format: functional
Enterococcus faecalis [6] = assay: Antibacterial activity against Enterococcus faecalis JH2-2 by CLSI method; format: functional
Enterococcus faecalis [7] = assay: Bactericidal activity against 5 X 10^8 CFU/ml Enterococcus faecalis JH2-2 at 2 ug/ml after 3 hrs by time kill analysis; format: functional
Enterococcus faecalis [8] = assay: Bactericidal activity against 5 X 10^6 CFU/ml Enterococcus faecalis JH2-2 harboring deletion at AltA, AltB and AltC gene at 2 ug/ml after 3 hrs by time kill analysis; format: functional
Enterococcus faecalis [9] = assay: Bactericidal activity against 5 X 10^6 CFU/ml Enterococcus faecalis JH2-2 at 2 ug/ml after 24 hrs by time kill analysis; format: functional
Enterococcus faecalis [10] = assay: as §1, with “JH2-2” for “JH2-2 harboring deletion at AltA, AltB and AltC gene”, “9.29+- 0.83” for “8.69+- 1.19”; format: functional; details: route intramuscular
Enterococcus faecalis [11] = assay: Antibacterial activity against Enterococcus faecalis JH2-2 assessed as induction of membrane permeabilization at 2 ug/ml after 3 hrs by propidium iodide and Syto9 staining based confocal microscopic analysis; format: functional, organism-based
Enterococcus faecalis [12] = assay: Bactericidal activity against 5 X 10^8 CFU/ml Enterococcus faecalis JH2-2 at 2 ug/ml after 6 hrs by time kill analysis; format: functional
Enterococcus faecalis [13] = assay: Bactericidal activity against 5 X 10^8 CFU/ml Enterococcus faecalis JH2-2 at 2 ug/ml after 24 hrs by time kill analysis; format: functional
Enterococcus faecalis [14] = assay: Bactericidal activity against 5 X 10^6 CFU/ml Enterococcus faecalis JH2-2 harboring deletion at AltA, AltB and AltC gene at 2 ug/ml after 6 hrs by time kill analysis; format: functional
Enterococcus faecalis [15] = assay: Bactericidal activity against 5 X 10^6 CFU/ml Enterococcus faecalis JH2-2 at 2 ug/ml after 3 hrs by time kill analysis; format: functional
Enterococcus faecalis [16] = assay: Bactericidal activity against 5 X 10^6 CFU/ml Enterococcus faecalis JH2-2 harboring deletion at AltA, AltB and AltC gene at 2 ug/ml after 24 hrs by time kill analysis; format: functional
Enterococcus faecalis [17] = assay: Bactericidal activity against 5 X 10^8 CFU/ml Enterococcus faecalis JH2-2 harboring deletion at AltA, AltB and AltC gene at 2 ug/ml after 24 hrs by time kill analysis; format: functional
Enterococcus faecalis [18] = assay: Antibacterial activity against Enterococcus faecalis JH2-2 harboring deletion at AltA, AltB and AltC gene by CLSI method; format: functional

With `CC1(C)S[C@@H]2[C@H](NC(=O)[C@H](N)c3ccc(O)cc3)C(=O)N2[C@H]1C(=O)O` [AMOXICILLIN] the log10CFU/ml (Enterococcus faecalis [1]) was 0.79, the Activity (Enterococcus faecalis [2]) was “Active” and the log10CFU/ml (Enterococcus faecalis [3]) was 2.83. For the same compound, the log10CFU/g (Enterococcus faecalis [4]) was 7.5, the log10CFU/ml (Enterococcus faecalis [5]) was 4.86 and the MIC (Enterococcus faecalis [6]) was 0.5 µg/mL (≈ 1.37 µM). It also gave a log10CFU/ml (Enterococcus faecalis [7]) of 1.73, a log10CFU/ml (Enterococcus faecalis [8]) of 3.15 and a log10CFU/ml (Enterococcus faecalis [9]) of 2.48. For the same compound, the log10CFU/g (Enterococcus faecalis [10]) was 7.69, the Activity (Enterococcus faecalis [11]) was “Active” and the log10CFU/ml (Enterococcus faecalis [12]) was 4.59. The log10CFU/ml (Enterococcus faecalis [13]) was 1.1, the log10CFU/ml (Enterococcus faecalis [14]) was 1.45 and the log10CFU/ml (Enterococcus faecalis [15]) was 2.07. The log10CFU/ml (Enterococcus faecalis [16]) was 4.44, the log10CFU/ml (Enterococcus faecalis [17]) was 2.46 and the MIC (Enterococcus faecalis [18]) was 0.5 µg/mL (≈ 1.37 µM).
